We go through eleven molecules from US5985603A, “P2x receptor DNA and protein sequence” (Glaxo Group Limited, priority 1994, dated 1999).

Where a name gives a salt, the structure may show the parent alone. Read-outs that look alike come from different tables or passages of the source.

Type in all cases: cell-based
Experiment [1] addresses T1, hP2X (Homo sapiens, UniProt P51575).
T1 construct: expressed in transfected cells; host or cells: Xenopus oocytes injected with in vitro transcribed RNA
T1 sequence (P51575 1-399): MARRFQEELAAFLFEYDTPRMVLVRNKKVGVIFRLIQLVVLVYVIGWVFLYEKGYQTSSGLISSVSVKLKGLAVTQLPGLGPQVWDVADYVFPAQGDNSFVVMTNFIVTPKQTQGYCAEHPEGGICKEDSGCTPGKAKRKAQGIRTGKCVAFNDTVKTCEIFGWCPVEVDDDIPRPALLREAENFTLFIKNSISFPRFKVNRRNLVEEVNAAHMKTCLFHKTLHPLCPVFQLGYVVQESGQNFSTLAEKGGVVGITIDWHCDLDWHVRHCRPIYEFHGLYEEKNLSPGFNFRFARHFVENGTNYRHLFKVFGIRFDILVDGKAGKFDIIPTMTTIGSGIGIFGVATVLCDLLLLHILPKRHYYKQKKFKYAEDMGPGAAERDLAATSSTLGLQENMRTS
Briefly: inward currents evoked by purinoceptor agonists in Xenopus oocytes expressing hP2X. Particulars: for relative potency: relative to ATP, from EEC50; for full agonist activity: concentration-response curves; for Emax at 100 µM: read-out: small inward current, % of the response to 100 μM ATP; for Emax: read-out: maximal response, % of the maximal ATP response. The method, then:
(§1) Human urinary bladder P2X cDNA, subcloned into the pBKCMV expression vector, was linearized with Notl, and transcribed in vitro with T3 polymerase in the presence of cap analogue m7G(5')ppp(5')G. Defolliculated Xenopus oocytes (Bertrand et al, Electrophysiology of neuronal nicotinic acetylcholine receptors expressed in Xenopus oocytes following nuclear injection of genes or cDNAs Meth Neurosci 4: 174-193 (1991)) were injected with 50 ng of human P2X in vitro transcribed RNA, and incubated at 18° C. for 2-6 days in the ND96 solution (mM): NaCl96, KCl2, MgCl2 1, CaCl2 2, sodium pyruvate 5, HEPES 5, ph 7.6-7.5, penicillin (10 U/ml), and streptomycin (10 μg/ml).
Oocytes were placed in a 1 ml chamber and superfused at 2-3 ml/min with ND96 solution with 0.1 mM BaCl2 replacing the 2 mM CaCl2 to prevent activation of endogenous calcium-activated chloride currents (Barish, A transient calcium-dependent chloride current in the immature Xenopus oocytes J Physiol 342: 309-325 (1983)). Currents were measured using a two-electrode voltage-clamp amplifier (Geneclamp Axon Instruments)at a holding potential of -60 mV. Microelectrodes were filled with 3 M KCl (0.5-2 M.OMEGA.). Data were collected using PClamp software (Axon Instruments). […] Antagonists were applied both in the superfusate and together with ATP in the U-tube solution.
Concentration response curves for purinoceptor agonists were fitted with a Hill slope of 1. […] Data are presented throughout as mean ± SEM for a given number of oocytes.

The target of experiment [2] is T2, rat superior cervical ganglion P2X receptor (clone 3) (Rattus norvegicus, UniProt P51577).
T2 construct: The insert appeared to be a full length cDNA; expressed in transfected cells; host or cells: HEK293 cells transfected with pcDNA3 construct p464 (also oocytes injected with in vitro transcribed RNA)
T2 sequence (P51577 1-388): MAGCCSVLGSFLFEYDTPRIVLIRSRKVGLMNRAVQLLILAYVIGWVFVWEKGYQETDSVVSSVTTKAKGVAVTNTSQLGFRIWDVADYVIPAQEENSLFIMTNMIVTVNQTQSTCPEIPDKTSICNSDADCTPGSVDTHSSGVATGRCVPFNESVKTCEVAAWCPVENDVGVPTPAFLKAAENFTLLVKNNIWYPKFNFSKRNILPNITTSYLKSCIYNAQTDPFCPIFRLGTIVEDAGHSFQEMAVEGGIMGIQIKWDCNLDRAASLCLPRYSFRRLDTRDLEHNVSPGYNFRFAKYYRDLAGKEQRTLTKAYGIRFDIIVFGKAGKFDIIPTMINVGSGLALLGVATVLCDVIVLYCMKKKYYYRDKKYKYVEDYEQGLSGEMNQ
Briefly: functional properties of cloned P2X receptors (electrical recordings): clone 3. Particulars: for antagonist profile, clone 3 (block): Table A, concentration not given; for sensitivity of ATP-activated currents to antagonism, compared with rat vas deferens/human bladder and PC12 forms: clone 3 (FIG. 15). Here is the method:
HEK 293 cells were transfected by the lipofectin method (Felgner et al., Proc. Nat'l. Acad. Sci. USA 84 7413-7417 (1987)) with P2X -plasmid. DNA concentration used was 1 mg/2 ml medium placed into a 35 mm petri dish containing four 11 mm diameter coverslips on which HEK cells were placed at 10,000 cells per coverslip. […] Currents were recorded from HEK 293 cells using whole-cell recording methods and the AXOPATCH™ 200 amplifier (Axon Instruments); patch pipettes (5 M.OMEGA.) contained (mM) Cs or K aspartate 140, NaCl 5, EGTA 11, HEPES 5. The external solution was (mM) NaCl 150, KCl2, CaCl2 2, MgCl2 1, HEPES 5 and glucose 11; the pH and osmolarity of both solutions were maintained at 7.3 and 305 mosmol/l respectively. All recordings performed at room temperature. Data acquisition and analysis were performed using pCLAMP™ and AXOGRAPH™ software (Axon Instruments). […] The pH and osmolarity of the solutions were 7.4 and 295 mosmol/l respectively. For single channel measurements, a […]™ 500 amplifier and outside-out recording methods were used (Adelman et al., Neuron 9 209-216 (1992)). Wax-coated patch pipettes (5-10 M.OMEGA.) contained (mM) K-gluconate 115, HEPES 5, BAPTA 5 and MgCl2 0.5, external solution was 96 mM NaCl, 2 mM KCl, 1.8 mM CaCl2, 1 mM MgCl2, 5 mM Hepes pH 7.6, and 5 mM sodium pyruvate.
The functional characterisation of the clone illustrated in FIG. 2 (referred to herein as clone 3) was carried out by electrical recordings from transfected HEK293 cells and from oocytes injected with the in vitro transcribed RNA, as described in Example 4 for the rat vas deferens P2X receptor. Table A summarizes the main properties of clone 3 as compared to those of rat vas/human bladder cDNA clone, and the PC12 cDNA clone (provided by David Julius and Tony Brake of the University of California at San Francisco).

The target in experiment [3] is T1, hP2X. Kind of experiment: antagonist inhibition of ATP-evoked currents in Xenopus oocytes expressing hP2X. Particulars: for inhibition of inward currents evoked by 10 μM ATP: 10 μM ATP (approximately EC90); for reversibility of antagonism on washout: PPADS, P5P. Here is the method: as §1
Oocytes were placed in a 1 ml chamber and superfused at 2-3 ml/min with ND96 solution with 0.1 mM BaCl2 replacing the 2 mM CaCl2 to prevent activation of endogenous calcium-activated chloride currents (Barish, A transient calcium-dependent chloride current in the immature Xenopus oocytes J Physiol 342: 309-325 (1983)). Currents were measured using a two-electrode voltage-clamp amplifier (Geneclamp Axon Instruments)at a holding potential of -60 mV. Microelectrodes were filled with 3 M KCl (0.5-2 M.OMEGA.). Data were collected using PClamp software (Axon Instruments). ATP and other purinoceptor agonists were applied by a U-tube perfusion system (Fenwick et al, A patch clamp study of bovine chromaffin cells and their sensitivity to acetylcholine J Physiol 331: 577-597 (1982)) placed close (200-500 μm) to the oocyte. […] Concentration response relationships to ATP and its analogs were determined by measuring the peak amplitude of responses to a 5 s application of agonist applied at 10 min intervals. Responses to agonists were normalized in each oocyte to the peak response evoked by 100 μM ATP; 100 μM ATP was usually applied at the beginning and at the end of an experiment to determine if there was any rundown of the response. […] Antagonists were applied both in the superfusate and together with ATP in the U-tube solution. Antagonists were superfused for 5-10 min prior to the application of ATP.
Concentration response curves for purinoceptor agonists were fitted with a Hill slope of 1. Equi-effective concentrations i.e. concentration of agonist, giving 50% of the response to 100 μM ATP, (EEC50) were determined from individual concentration response curves. […] Data are presented throughout as mean ± SEM for a given number of oocytes.

As to “2'-3'-O-(4-benzoylbenzol)ATP tetraethylamonium salt [BzATP]”, on hP2X [1], the “maximal response, % of the maximal ATP response” value is on record as “about 65%” and the relative potency stood at 0.20. Further, the EC50 on hP2X [1] (read-out: EEC50: equieffective concentration producing an inward current equivalent to 50% of the peak response to 100 μM ATP, Hill slope of 1, mean ± SEM, n = 3-4, ATP value from mean data from all experiments) came out at 4.2 ± 2.2 µM.

As for `Nc1nc(Cl)nc2c1ncn2[C@@H]1O[C@H](COP(=O)(O)OP(=O)(O)OP(=O)(O)O)[C@@H](O)[C@H]1O` [2chloroATP, 2-chloro-ATP tetra sodium salt], on hP2X [1], the EC50 was 0.76 ± 0.1 µM, the full agonist activity entry was “full agonists” and the relative potency is 1.08. Moreover, the “comparison of concentration-effect curves” value at hP2X [1] (ATP, 2MeSATP and 2-chloro-ATP) is on record as “superimposable”.

As for `Nc1ncnc2c1ncn2[C@@H]1O[C@H](COP(=O)([O-])OP(=O)([O-])[O-])[C@@H](O)[C@H]1O.[Na+].[Na+].[Na+]` [ADP, adenosine 5'-diphosphate sodium salt], on hP2X [1], the EC50 came out at 34.3 ± 16 µM, the full agonist activity result is “full agonists” and the relative potency is recorded as 0.024.

For the molecule `Nc1ncnc2c1ncn2[C@@H]1O[C@H](COP(=O)(O)O)[C@@H](O)[C@H]1O` [AMP, adenosine 5'-monophosphate sodium salt], the Emax at 100 µM at hP2X [1] worked out at 6.08 ± 2%.

On to `Nc1ncnc2c1ncn2[C@@H]1O[C@H](COP(=O)(O)OP(=O)(O)OP(=O)(O)OP(=O)(O)OP(=O)(O)OC[C@H]2O[C@@H](n3cnc4c(N)ncnc43)[C@H](O)[C@@H]2O)[C@@H](O)[C@H]1O` [AP5A, p1, p5-di [adenosine-5'] pentaphosphate trilithium salt], for which, at hP2X [1], the EC50 was 2 ± 0.2 µM, the Emax was roughly 65% and the relative potency was 0.41.

For the molecule `Nc1ncnc2c1ncn2[C@@H]1O[C@H](COP(=O)(O)OP(=O)(O)OP(O)(O)=S)[C@@H](O)[C@H]1O` [ATP-γ-S, adenosine 5'-O-(-3-thiophosphate) tetralithium salt], on hP2X [1], the EC50 was 10.6 ± 3.8 µM, the Emax was roughly 65% and the relative potency was 0.077.

`Nc1ncnc2c1ncn2[C@@H]1O[C@H](CO)[C@@H](O)[C@H]1O` [Adenosine]: the Emax at 100 µM at hP2X [1] was determined as 2.3 ± 1.5%.

As for `Cc1ncc(COP(=O)(O)O)c(C=O)c1O` [P5 P, Pyridoxal 5-phosphate monohydrate], in experiment [2], the “antagonist profile, clone 3 (block)” value was less than 40%; the “sensitivity of ATP-activated currents to antagonism, compared with rat vas deferens/human bladder and PC12 forms” value is given as “much less sensitive to antagonism”. At hP2X [3], the IC50 (commonly the concentration at which inhibition is half-maximal) was roughly 20 µM, the “inhibition of inward currents evoked by 10 μM ATP” value is on record as “inhibited inward currents evoked by 10 μM ATP” and the “reversibility of antagonism on washout” value is “readily reversible on washout”.

`Cc1nc(N=Nc2ccc(S(=O)(=O)O)cc2S(=O)(=O)O)c(COP(=O)(O)O)c(C=O)c1O` [PPADS, pyridoxal phosphate 6-azophenyl 2',4'-disulphonic acid]: in experiment [2], the “antagonist profile, clone 3 (block)” value is recorded as less than 30%; the “sensitivity of ATP-activated currents to antagonism, compared with rat vas deferens/human bladder and PC12 forms” value is recorded as “much less sensitive to antagonism”. Moreover, on hP2X [3], the IC50 is roughly 1 µM, the “inhibition of inward currents evoked by 10 μM ATP” value was “inhibited inward currents evoked by 10 μM ATP” and the “reversibility of antagonism on washout” value is recorded as “readily reversible on washout”.

In the case of `O=c1ccn([C@@H]2O[C@H](COP(=O)(O)OP(=O)(O)OP(=O)(O)O)[C@@H](O)[C@H]2O)c(=O)[nH]1` [UTP, uridine 5'-triphosphate sodium salt], the Emax at 100 µM on hP2X [1] is 3.7 ± 1.8%.

For the molecule `Nc1ncnc2c1ncn2[C@@H]1O[C@H](COP(=O)(O)OP(=O)(O)CP(=O)(O)O)[C@@H](O)[C@H]1O` [d,β,γ-meATP, β,γ-methylene-D-ATP sodium salt], at hP2X [1], the EC50 came out at 24.1 ± 1.6 µM and the relative potency came to 0.034.
